The experiment addresses T1, recombinant human PLK1[2-369]T210D (Homo sapiens, UniProt P53350, T210D).
T1 construct: recombinant human PLK1[2-369]T210D; Smt (SUMO) fusion partner (N, cleaved yes); host or cells: E. coli
As to the kind of experiment: PLK1 DELFIA Kinase Assay. It counts as biochemical. The note with it: 50 μM ATP, 2 μM peptide substrate, 0.3 nM enzyme, 90 minutes at room temperature. As for the experimental part: Recombinant human PLK1 was expressed in E. coli as an N-terminal Smt fusion protein using a proprietary vector (pSGX4) by Structural Genomics (SGX). The fusion partner was removed through cleavage with Ulp1 after an initial purification using a Ni2+ affinity column.
PLK1 DELFIA® Kinase Assay
The enzymatic reaction mixture, with or without PLK inhibitors, was incubated 90 minutes at room temperature before termination with 50 μL of STOP buffer containing 1% BSA, 0.05% Tween20, 100 mM EDTA. 50 μL of the stopped enzyme reaction mixture was transferred to a Neutravidin-coated 384-well plate (Pierce) and incubated at room temperature for 60 minutes. […] The wells were washed and then the bound europium was liberated using 50 μL of Enhancement Solution (Perkin Elmer). Quantification of europium was done using a Pherastar (BMG Labtech)
T1 sequence (P53350 2-369 T210D): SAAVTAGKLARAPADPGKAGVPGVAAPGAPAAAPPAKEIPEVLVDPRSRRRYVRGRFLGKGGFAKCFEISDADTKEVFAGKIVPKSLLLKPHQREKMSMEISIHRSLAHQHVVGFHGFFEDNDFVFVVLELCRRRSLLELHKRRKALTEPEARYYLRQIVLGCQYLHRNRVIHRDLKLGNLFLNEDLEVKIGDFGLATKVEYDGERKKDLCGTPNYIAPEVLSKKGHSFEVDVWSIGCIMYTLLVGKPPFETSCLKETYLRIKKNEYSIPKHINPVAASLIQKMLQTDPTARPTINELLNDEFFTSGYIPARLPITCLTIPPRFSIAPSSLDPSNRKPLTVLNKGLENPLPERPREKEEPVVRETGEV
Consider `COc1ncc(CCCN(C)C)cc1Nc1ncc2c(n1)-c1ccc(Cl)cc1NC(=S)C2` [Compound I-24, 9-chloro-2-({5-[3-(dimethylamino)propyl]-2-methoxypyridin-3-yl}amino)-5,7-dihydro-6H-pyrimido[5,4-d][1]benzazepine-6-thione], for which the IC50 is less than 5 nM. `CN(C)CCc1cncc(Nc2ncc3c(n2)-c2ccc(C(F)(F)F)cc2NC(=S)C3)c1` [Compound I-25, 2-({5-[2-(dimethylamino)ethyl]pyridin-3-yl}amino)-9-(trifluoromethyl)-5,7-dihydro-6H-pyrimido[5,4-d][1]benzazepine-6-thione]: the IC50 was less than 5 nM. For `Cc1ncc(CCN2CCN(C)CC2)cc1Nc1ncc2c(n1)-c1ccc(C(F)(F)F)cc1NC(=S)C2` [Compound I-26, 2-({2-methyl-5-[2-(4-methylpiperazin-1-yl)ethyl]pyridin-3-yl}amino)-9-(trifluoromethyl)-5,7-dihydro-6H-pyrimido[5,4-d][1]benzazepine-6-thione], the IC50 was less than 5 nM. `CN(C)CCCc1cnc(F)c(Nc2ncc3c(n2)-c2ccc(Cl)cc2NC(=S)C3)c1` [Compound I-27, 9-chloro-2-({5-[3-(dimethylamino)propyl]-2-fluoropyridin-3-yl}amino)-5,7-dihydro-6H-pyrimido[5,4-d][1]benzazepine-6-thione]: the IC50 was less than 5 nM. In the case of `CN1CCN(c2ccc(Nc3ncc4c(n3)-c3ccc(Cl)cc3NC(=S)C4)cn2)CC1` [Compound I-28, 9-chloro-2-{[6-(4-methylpiperazin-1-yl)pyridin-3-yl]amino}-5,7-dihydro-6H-pyrimido[5,4-d][1]benzazepine-6-thione] it was less than 5 nM; in that of `Cc1nc(N2CCC(N(C)C)CC2)ccc1Nc1ncc2c(n1)-c1ccc(C(F)(F)F)cc1NC(=S)C2` [Compound I-29, 2-({6-[4-(dimethylamino)piperidin-1-yl]-2-methylpyridin-3-yl}amino)-9-(trifluoromethyl)-5,7-dihydro-6H-pyrimido[5,4-d][1]benzazepine-6-thione], less than 5 nM. In the case of `Cc1ncc(CCNC2CCCC2)cc1Nc1ncc2c(n1)-c1ccc(Cl)cc1NC(=S)C2` [Compound I-30, 9-chloro-2-({5-[2-(cyclopentylamino)ethyl]-2-methylpyridin-3-yl}amino)-5,7-dihydro-6H-pyrimido[5,4-d][1]benzazepine-6-thione] it was more than 25 nM; in that of `Cc1ncc(CCN2C[C@@H](C)O[C@@H](C)C2)cc1Nc1ncc2c(n1)-c1ccc(Cl)cc1NC(=S)C2` [Compound I-31, 9-chloro-2-[(5-{2-[(2R,6S)-2,6-dimethylmorpholin-4-yl]ethyl}-2-methylpyridin-3-yl)amino]-5,7-dihydro-6H-pyrimido[5,4-d][1]benzazepine-6-thione], less than 5 nM. Turning to `CN(C)CCCc1cncc(Nc2ncc3c(n2)-c2ccc(C(F)(F)F)cc2NC(=S)C3)c1` [Compound I-32, 2-({5-[3-(dimethylamino)propyl]pyridin-3-yl}amino)-9-(trifluoromethyl)-5,7-dihydro-6H-pyrimido[5,4-d][1]benzazepine-6-thione], the IC50 is less than 5 nM. Under `CN(C)CCCc1cc2c(cc1Cl)NC(=S)Cc1cnc(Nc3cccnc3)nc1-2` [Compound I-33, 9-chloro-10-[3-(dimethylamino)propyl]-2-(pyridin-3-ylamino)-5,7-dihydro-6H-pyrimido[5,4-d][1]benzazepine-6-thione] stands 5 to 25 nM; under `Cc1ncc(CCN2CCCC(N(C)C)C2)cc1Nc1ncc2c(n1)-c1ccc(Cl)cc1NC(=S)C2` (stereo not drawn) [Compound I-34, 9-chloro-2-[(5-{2-[3-(dimethylamino)piperidin-1-yl]ethyl}-2-methylpyridin-3-yl)amino]-5,7-dihydro-6H-pyrimido[5,4-d][1]benzazepine-6-thione], less than 5 nM. In the case of `Cc1nc(N(C)CCN(C)C)ccc1Nc1ncc2c(n1)-c1ccc(C(F)(F)F)cc1NC(=S)C2` [Compound I-35, 2-({6-[[2-(dimethylamino)ethyl](methyl)amino]-2-methylpyridin-3-yl}amino)-9-(trifluoromethyl)-5,7-dihydro-6H-pyrimido[5,4-d][1]benzazepine-6-thione] it was 5 to 25 nM; in that of `CN(C)CCCc1cnc(C(F)(F)F)c(Nc2ncc3c(n2)-c2ccc(C(F)(F)F)cc2NC(=S)C3)c1` [Compound I-36, 2-{[5-[3-(dimethylamino)propyl]-2-(trifluoromethyl)pyridin-3-yl]amino}-9-(trifluoromethyl)-5,7-dihydro-6H-pyrimido[5,4-d][1]benzazepine-6-thione], 5 to 25 nM.

For the molecule `Cc1ccnc(C)c1Nc1ncc2c(n1)-c1ccc(Cl)cc1NC(=S)C2` [Compound I-37, 9-chloro-2-[(2,4-dimethylpyridin-3-yl)amino]-5,7-dihydro-6H-pyrimido[5,4-d][1]benzazepine-6-thione], the IC50 was more than 25 nM. On to `CCc1ncc(CCCN(C)C)cc1Nc1ncc2c(n1)-c1ccc(Cl)cc1NC(=S)C2` [Compound I-38, 9-chloro-2-({5-[3-(dimethylamino)propyl]-2-ethylpyridin-3-yl}amino)-5,7-dihydro-6H-pyrimido[5,4-d][1]benzazepine-6-thione], for which the IC50 was less than 5 nM.

Turning to `Cc1ncc(CCCN(C)C)cc1Nc1ncc2c(n1)-c1ccc(C3CC3)cc1NC(=S)C2` [Compound I-39, 9-cyclopropyl-2-({5-[3-(dimethylamino)propyl]-2-methylpyridin-3-yl}amino)-5,7-dihydro-6H-pyrimido[5,4-d][1]benzazepine-6-thione], the IC50 is less than 5 nM. `Cc1nc(NCC2CCN(C)CC2)ccc1Nc1ncc2c(n1)-c1ccc(Cl)cc1NC(=S)C2` [Compound I-40, 9-chloro-2-[(2-methyl-6-{[(1-methylpiperidin-4-yl)methyl]amino}pyridin-3-yl)amino]-5,7-dihydro-6H-pyrimido[5,4-d][1]benzazepine-6-thione]: the IC50 was less than 5 nM.

`Cc1nc(N(C)CCCN(C)C)ccc1Nc1ncc2c(n1)-c1ccc(Cl)cc1NC(=S)C2` [Compound I-41, 9-chloro-2-({6-[[3-(dimethylamino)propyl](methyl)amino]-2-methylpyridin-3-yl}amino)-5,7-dihydro-6H-pyrimido[5,4-d][1]benzazepine-6-thione]: the IC50 lay within 5 to 25 nM. On to `Cc1nc(C)c(Nc2ncc3c(n2)-c2ccc(Cl)cc2NC(=S)C3)cc1CCCN(C)C` [Compound I-42, 9-chloro-2-({5-[3-(dimethylamino)propyl]-2,6-dimethylpyridin-3-yl}amino)-5,7-dihydro-6H-pyrimido[5,4-d][1]benzazepine-6-thione], for which the IC50 is less than 5 nM.

For the molecule `Cc1ncc(CCN2CCOCC2)cc1Nc1ncc2c(n1)-c1ccc(C(F)(F)F)cc1NC(=S)C2` [Compound I-43, 2-{[2-methyl-5-(2-morpholin-4-ylethyl)pyridin-3-yl]amino}-9-(trifluoromethyl)-5,7-dihydro-6H-pyrimido[5,4-d][1]benzazepine-6-thione], the IC50 is less than 5 nM.

Regarding `Cc1nc(CC2CCN(C)CC2)ccc1Nc1ncc2c(n1)-c1ccc(Cl)cc1NC(=S)C2` [Compound I-44, 9-chloro-2-({2-methyl-6-[(1-methylpiperidin-4-yl)methyl]pyridin-3-yl}amino)-5,7-dihydro-6H-pyrimido[5,4-d][1]benzazepine-6-thione], the IC50 fell in the range of 5 to 25 nM. Consider `Cc1ncc(CCN2CCCC2)cc1Nc1ncc2c(n1)-c1ccc(Cl)cc1NC(=S)C2` [Compound I-45, 9-chloro-2-{[2-methyl-5-(2-pyrrolidin-1-ylethyl)pyridin-3-yl]amino}-5,7-dihydro-6H-pyrimido[5,4-d][1]benzazepine-6-thione], for which the half-maximal inhibitory concentration (IC50) is less than 5 nM. Under `Cc1ncc(N2CCN(C)CC2)cc1Nc1ncc2c(n1)-c1ccc(C(F)(F)F)cc1NC(=S)C2` [Compound I-46, 2-{[2-methyl-5-(4-methylpiperazin-1-yl)pyridin-3-yl]amino}-9-(trifluoromethyl)-5,7-dihydro-6H-pyrimido[5,4-d][1]benzazepine-6-thione] stands less than 5 nM. For `S=C1Cc2cnc(Nc3ccc(N4CCCC4)nc3)nc2-c2ccc(Cl)cc2N1` [Compound I-47, 9-chloro-2-[(6-pyrrolidin-1-ylpyridin-3-yl)amino]-5,7-dihydro-6H-pyrimido[5,4-d][1]benzazepine-6-thione], the IC50 was less than 5 nM. For `CCN1[C@H](C)CN(c2cnc(C)c(Nc3ncc4c(n3)-c3ccc(Cl)cc3NC(=S)C4)c2)C[C@@H]1C` [Compound I-49, 9-chloro-2-({5-[(3R,5S)-4-ethyl-3,5-dimethylpiperazin-1-yl]-2-methylpyridin-3-yl}amino)-5,7-dihydro-6H-pyrimido[5,4-d][1]benzazepine-6-thione], the IC50 is less than 5 nM. In the case of `Cc1ncc(CCN(C)C)cc1Nc1ncc2c(n1)-c1ccc(C(F)(F)F)cc1NC(=S)C2` [Compound I-50, 2-({5-[2-(dimethylamino)ethyl]-2-methylpyridin-3-yl}amino)-9-(trifluoromethyl)-5,7-dihydro-6H-pyrimido[5,4-d][1]benzazepine-6-thione] it was less than 5 nM. Under `CN1CCN(CCc2cncc(Nc3ncc4c(n3)-c3ccc(Cl)cc3NC(=S)C4)c2)CC1` [Compound I-51, 9-chloro-2-({5-[2-(4-methylpiperazin-1-yl)ethyl]pyridin-3-yl}amino)-5,7-dihydro-6H-pyrimido[5,4-d][1]benzazepine-6-thione] stands less than 5 nM.

Broadly, the IC50 is the concentration that inhibits the measured activity by half.

(Values after US7998952B2, “Thiolactams and uses thereof” (Millennium Pharmaceuticals, Inc., priority 2008, dated 2011).)
